BindingDB's records for patent US8940738 (Mitsubishi Tanabe Pharma, 2015)

target: T1, Serine/threonine-protein (Bos taurus, UniProt A0A3Q1MT31); experiment: Inhibition Assay; conditions: pH 6.5; 25 °C
T1 construct: gene GSK3B
Method: A mixture containing 100 mM MES-sodium hydroxide (pH 6.5), 1 mM magnesium acetate, 0.5 mM EGTA, 5 mM beta-mercaptoethanol, 0.02% Tween 20, 10% glycerol, 12 ug/ml P-GS1, 41.7 uM [gamma-32P] ATP (68 kBq/ml), bovine cerebral TPK1 and a compound shown in Table (a final mixture contained 1.7% DMSO deriving from a solution of a test compound prepared in the presence of 10% DMSO) was used as a reaction system. The phosphorylation was started by adding ATP, and the reaction was conducted at 25 C. for 2 hours, and then stopped by adding 21% perchloric acid on ice cooling. The reaction mixture was centrifuged at 12,000 rpm for 5 minutes and adsorbed on P81 paper (Whatmann), and then the paper was washed four times with 75 mM phosphoric acid, three times with water and once with acetone. The paper was dried, and the residual radioactivity was measured using a liquid scintillation counter.

T1 sequence (A0A3Q1MT31 1-419): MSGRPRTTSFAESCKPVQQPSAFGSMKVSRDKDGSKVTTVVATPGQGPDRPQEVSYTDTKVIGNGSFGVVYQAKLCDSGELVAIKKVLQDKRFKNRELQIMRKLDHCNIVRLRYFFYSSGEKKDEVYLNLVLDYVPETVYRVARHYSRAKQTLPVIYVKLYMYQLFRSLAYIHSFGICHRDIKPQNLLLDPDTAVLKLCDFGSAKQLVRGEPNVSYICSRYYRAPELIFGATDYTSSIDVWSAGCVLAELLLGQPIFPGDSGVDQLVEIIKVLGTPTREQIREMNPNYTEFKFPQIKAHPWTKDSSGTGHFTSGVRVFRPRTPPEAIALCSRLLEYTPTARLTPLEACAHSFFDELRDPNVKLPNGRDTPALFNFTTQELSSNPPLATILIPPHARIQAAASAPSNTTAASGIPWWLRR

Structure (SMILES)	IC50 [nM]
C[C@@H]1COCCN1c1nc(-c2ncncc2F)cc(=O)n1C [US8940738, 2]	19.7
Cn1c(N2CCOC[C@H]2CF)nc(-c2ncncc2F)cc1=O [US8940738, 3]	33.4
Cc1nc(-c2ccc([C@H]3CN(c4nc(-c5ncncc5F)cc(=O)n4C)CCO3)cc2)no1 [US8940738, 4]	8.4
Cn1c(N2CCCC(c3ccc(N4CCCC4)cc3)C2)nc(-c2ncncc2F)cc1=O (centres undefined) [US8940738, 5]	33.1
Cc1cccc(N2CCN(c3nc(-c4ncncc4F)cc(=O)n3C)CC2)c1C [US8940738, 7]	78.3
COc1ccc(CCNc2nc(-c3ncncc3F)cc(=O)n2C)cc1OC [US8940738, 8]	75.3
Cn1c(NCC(=O)c2ccc(Cl)cc2)nc(-c2ncncc2F)cc1=O [US8940738, 9]	608
CN(CCc1ccc([N+](=O)[O-])cc1)c1nc(-c2ncncc2F)cc(=O)n1C [US8940738, 10]	165
Cc1nc(-c2ccc([C@H]3CN(c4nc(-c5ccncn5)c(O)c(=O)n4C)CCO3)cc2)no1 [US8940738, 11]	6.7
